Source: patent US8642765B2, “Azaindole-indole coupled derivatives, preparation methods and uses thereof” (priority 2007, dated 2014)

Columns and labels:
[1] = tested on: DU145 tumor cells; assay: MTT growth inhibition of DU145 cells, 72 h; assay type: cell-based, human; details: for IC50 / IC90: DU145, 72 h, MTT
Procedure: DU145 cells were inoculated in RPM11640 medium containing 10% calf serum, incubated at 37° C., 5% CO2 in CO2 incubator, and passaged every 2-3 days. In this experiment, cells were grown in logarithmic growth phase.
In the experiment, the cells at logarithmic growth phase were formulated into suspension, and the viability by trypan blue staining was more than 98%. The suspension was divided into several groups: 1 as blank control group (cell suspension); and 2 as experimental groups (cell suspension plus drugs).
(§1) The drugs were formulated into a stock solution in DMSO, and the concentration of the stock solution was 20 mmol (used within 4 hours). In the experiment, the work solution of the drugs was diluted with RPM11640 medium containing 10% calf serum under aseptic condition, to a final concentration of 80 μM. The drug concentrations were increased by 2 times (1.25-20 μM).
(§2) The DU145 cell in logarithmic growth phase were selected, centrifuged, counted, and formulated into a cell suspension (2.5×10^4/ml) with RPM11640 medium containing 10% calf serum. The cell suspension were inoculated into 96-well plates at a density of 5000 cells/200 μl per well, incubated for 24 hours at 37° C., 5% CO2. According to the above concentration of the drug, the cells were inoculated to 6 groups (including one control group), with 8 wells per group. After incubating for 72 hours, the viability of cells was measured by MTT assay. The absorbance value (A) was measured with detection wavelength at 540 nm, reference wavelength at 630 nm. The inhibitory rate (I) was calculated by the following equation, where T was the absorbance value of the experimental groups, and C was the absorbance value of the blank control group: I=(1−T/C)×100%
(§3) The regression equation was calculated by the concentration-inhibitory rate curve, to obtain 50% and 90% inhibition concentration (IC50 and IC90, μM).

[2] = tested on: human hepatoma cell line 7701 QGY; assay: MTT growth inhibition of 7701 QGY cells; assay type: cell-based; details: read-out: IC50 (μM) Tumor cells 7701 QGY
Procedure: as §1, §2, §3
(§4) 1. Tumor Cells: human hepatoma cell lines 7701 QGY and HepG-2, human lung adenocarcinoma cell line A549, human chronic myelocytic leukemia cell line K562, human leukemia cell line CEM and mouse melanoma cell line K111.
(§5) 2. Using the methods described in example 2, the biological activity of a portion of newly synthesized 5- or 7-azaindirubin derivatives and 5- or 7-azaisoindigo derivatives (20 compounds) for inhibiting various tumor cells growth were determined.

[3] = tested on: human hepatoma cell line HepG-2; assay: MTT growth inhibition of HepG-2 cells; assay type: cell-based; details: HepG-2, MTT; read-out: IC50 (μM) Tumor cells HepG-2
Procedure: as §1, §2, §3, §4, §5

[4] = tested on: human lung adenocarcinoma cell line A549; assay: MTT growth inhibition of A549 cells; assay type: cell-based; details: read-out: IC50 (μM) Tumor cells A549
Procedure: as §1, §2, §3, §4, §5

[5] = tested on: human chronic myelocytic leukemia cell line K562; assay: MTT growth inhibition of K562 cells; assay type: cell-based; details: read-out: IC50 (μM) Tumor cells K562
Procedure: as §1, §2, §3, §4, §5

[6] = tested on: human leukemia cell line CEM; assay: MTT growth inhibition of CEM cells; assay type: cell-based; details: read-out: IC50 (μM) Tumor cells CEM
Procedure: as §1, §2, §3, §4, §5

[7] = tested on: mouse melanoma cell line K111; assay: MTT growth inhibition of K111 cells; assay type: cell-based; details: Klll, read-out: IC50 (μM) Tumor cells Klll
Procedure: as §1, §2, §3, §4, §5

[8] = Homo sapiens, DU-145, 72 h, Table 5
[9] = Homo sapiens, DU-145, 72 h, Table 6

SMILES | IC50 ([1]; Table 5) [µM] | IC90 ([1]; Table 5) [µM] | IC50 ([1]; Table 6) [µM] | IC90 ([1]; Table 6) [µM] | other results
CC(C)N1C(=O)C(=C2Nc3ccccc3C2=O)c2cnccc21 [Compound 7] | > 100 |  |  |  | 
CCCCN1C(=O)C(=C2Nc3ccccc3C2=O)c2cnccc21 [Compound 8] | 11.5 | 39 |  |  | 
O=C1C(=C2C(=O)N(Cc3ccccc3)c3ccncc32)Nc2ccccc21 [Compound 9] | 12 | 85 |  |  | 
CCN1C(=O)C(=C2Nc3ccc(Br)cc3C2=O)c2cnccc21 [Compound 12] | 8.8 | 28 |  |  | 
CC(C)N1C(=O)C(=C2Nc3ccc(Cl)cc3C2=O)c2cnccc21 [Compound 15] | 9 | 48 |  |  | 
CN1C(=O)C(=C2Nc3ccc(Cl)cc3C2=NO)c2cnccc21 [Compound 25] | 1.7 | 12.2 |  |  | growth inhibitory effects on tumor cells (in words) ([1]; discussion of the MTT assay, DU145): relatively significant growth inhibitory effects
CCN1C(=O)C(=C2Nc3ccc(Br)cc3C2=NO)c2cnccc21 [Compound 28] | 4.5 | 14 |  |  | 
CCN1C(=O)C(=C2Nc3ccc(Cl)cc3C2=NO)c2cnccc21 [Compound 29] | 2.2 | 6.8 |  |  | 
CC(C)N1C(=O)C(=C2Nc3ccc(Cl)cc3C2=NO)c2cnccc21 [Compound 31] | 3.7 | 11.5 |  |  | 
O=C1C(=C2Nc3ccc(Cl)cc3C2=NO)c2cnccc2N1Cc1ccccc1 [Compound 35] | 7.3 | 20 |  |  | 
CCN1C(=O)C(=C2Nc3ccccc3C2=NO)c2cnccc21 [Compound 38] | 6.4 | 22 |  |  | 
CN1C(=O)C(=C2C(=O)Nc3ccc(F)cc32)c2cnccc21 [Compound 63] | 48 | > 100 |  |  | 
CC(=O)OCC1OC(N2C(=O)C(=C3C(=O)Nc4ccccc43)c3cnccc32)C(OC(C)=O)C1OC(C)=O (stereo not drawn) [Compound 67] | 8 | 44 |  |  | 
CCN1C(=O)C(=C2C(=O)Nc3ccc(F)cc32)c2cnccc21 [Compound 71] | 17 | 87 |  |  | 
CC(C)N1C(=O)C(=C2C(=O)Nc3ccc(Cl)cc32)c2cnccc21 [Compound 75] | 9.7 | 29 |  |  | 
CCCCN1C(=O)C(=C2C(=O)Nc3ccccc32)c2cnccc21 [Compound 78] | 16 | 51 |  |  | 
CCCCN1C(=O)C(=C2C(=O)Nc3ccc(Br)cc32)c2cnccc21 [Compound 79] | 14.5 | 77 |  |  | 
CCCCN1C(=O)C(=C2C(=O)Nc3ccc(F)cc32)c2cnccc21 [Compound 82] | > 100 | > 100 |  |  | 
CCN1C(=O)/C(=C2\Nc3ccccc3C2=O)c2ccccc21 [Compound 90, 1-ethyl-indirubin, reference compound] |  |  |  |  | IC50 [1, 8]: 7.2 µM; IC90 [1, 8]: 31 µM; IC50 [1, 9]: 7 µM; IC90 [1, 9]: 30 µM
COc1ccc2c(c1)C(=O)C(=C1C(=O)N(C)c3ncc(C)cc31)N2 [Compound 95] |  |  | 400 | > 100 | IC50 [2]: 23.9 µM; IC50 [3]: 50.1 µM; IC50 [4]: 35.2 µM; IC50 [5]: 8.1 µM; IC50 [6]: 9 µM; IC50 [7]: 15.6 µM
CC(C)N1C(=O)C(=C2Nc3ccccc3C2=O)c2cccnc21 [Compound 98] |  |  | > 100 |  | 
CCCCN1C(=O)C(=C2Nc3ccccc3C2=O)c2cccnc21 [Compound 99] |  |  | 11.5 | 87 | IC50 [2]: 12.4 µM; IC50 [3]: 29.3 µM; IC50 [4]: 18.4 µM; IC50 [5]: 6.7 µM; IC50 [6]: 7.1 µM; IC50 [7]: 10.1 µM
O=C1C(=C2C(=O)N(Cc3ccccc3)c3ncccc32)Nc2ccccc21 [Compound 100] |  |  | 9.5 | 31.5 | 
CN1C(=O)C(=C2Nc3ccc(Br)cc3C2=O)c2cccnc21 [Compound 101] |  |  | 11.5 | 60 | IC50 [2]: 15 µM; IC50 [3]: 28.8 µM; IC50 [4]: 21.6 µM; IC50 [5]: 7.8 µM; IC50 [6]: 12 µM; IC50 [7]: 23 µM

SMILES | IC50 ([1]; Table 5) [µM] | IC90 ([1]; Table 5) [µM] | IC50 ([1]; Table 6) [µM] | IC90 ([1]; Table 6) [µM] | other results
CN1C(=O)C(=C2Nc3ccc(Cl)cc3C2=O)c2cccnc21 [Compound 102] |  |  | 8 | 18 | IC50 [2]: 39.5 µM; IC50 [3]: 41.5 µM; IC50 [4]: 22.8 µM; IC50 [5]: 9.5 µM; IC50 [6]: 7 µM; IC50 [7]: 18.2 µM
CCN1C(=O)C(=C2Nc3ccc(Br)cc3C2=O)c2cccnc21 [Compound 103] |  |  | 10 | 32.2 | 
CCN1C(=O)C(=C2Nc3ccc(Cl)cc3C2=O)c2cccnc21 [Compound 104] |  |  | 8.5 | 45 | 
CC(C)N1C(=O)C(=C2Nc3ccc(Br)cc3C2=O)c2cccnc21 [Compound 105] |  |  | 8.1 | 28.5 | IC50 [2]: 13.4 µM; IC50 [3]: 32 µM; IC50 [4]: 24.1 µM; IC50 [5]: 19 µM; IC50 [6]: 8 µM; IC50 [7]: 11.9 µM
CC(C)N1C(=O)C(=C2Nc3ccc(Cl)cc3C2=O)c2cccnc21 [Compound 106] |  |  | 18.5 | 100 | IC50 [2]: 28 µM; IC50 [3]: 18 µM; IC50 [4]: 19.6 µM; IC50 [5]: 20.4 µM; IC50 [6]: 10.2 µM; IC50 [7]: 14 µM
CCCCN1C(=O)C(=C2Nc3ccc(Br)cc3C2=O)c2cccnc21 [Compound 107] |  |  | 14 | 26 | 
CCCCN1C(=O)C(=C2Nc3ccc(Cl)cc3C2=O)c2cccnc21 [Compound 108] |  |  | 11 | 42 | 
O=C1C(=C2C(=O)N(Cc3ccccc3)c3ncccc32)Nc2ccc(Br)cc21 [Compound 109, 1-benzyl-5′-bromo-7-azaindirubin] |  |  | 7 | 24 | IC50 [2]: 10 µM; IC50 [3]: 21.2 µM; IC50 [4]: 15.8 µM; IC50 [5]: 12.5 µM; IC50 [6]: 9 µM; IC50 [7]: 18.6 µM
CNc1cnc2c(c1)C(=C1Nc3ccc(F)cc3C1=O)C(=O)N2Cc1ccccc1 [Compound 111] |  |  | 7.4 | 34 | IC50 [2]: 28.5 µM; IC50 [3]: 17 µM; IC50 [4]: 24.3 µM; IC50 [5]: 15 µM; IC50 [6]: 11 µM; IC50 [7]: 15.1 µM
CCN1C(=O)C(=C2Nc3ccc(Cl)cc3C2=NO)c2cccnc21 [Compound 120] |  |  | 5.4 | 61 | 
CC(C)N1C(=O)C(=C2Nc3ccc(Cl)cc3C2=NO)c2cccnc21 [Compound 122] |  |  | 8 | 25 | 
CCCCN1C(=O)C(=C2Nc3ccc(Br)cc3C2=NO)c2cccnc21 [Compound 123] |  |  | 3.7 | 5 | 
CC(C)N1C(=O)C(=C2Nc3ccccc3C2=NO)c2cccnc21 [Compound 130] |  |  | 7.05 | 17 | 
CCCCN1C(=O)C(=C2Nc3ccccc3C2=NO)c2cccnc21 [Compound 131, 1-butyl-7-azaindirubin-3′-oxime] |  |  | 16 | 80 | 
CCN1C(=O)C(=C2C(=O)Nc3ccc(Cl)cc32)c2cccnc21 [Compound 161] |  |  | 14 | 45 | 
CCN1C(=O)C(=C2C(=O)Nc3ccc(F)cc32)c2cccnc21 [Compound 162] |  |  | 17.5 | 89 | 
CC(C)N1C(=O)C(=C2C(=O)Nc3ccc(Br)cc32)c2cccnc21 [Compound 165] |  |  | 8.3 | 28 | 
CC(C)N1C(=O)C(=C2C(=O)Nc3ccc(Cl)cc32)c2cccnc21 [Compound 166] |  |  | 10 | 31.5 | 
CCCCN1C(=O)C(=C2C(=O)Nc3ccccc32)c2cccnc21 [Compound 169] |  |  | 14 | 47 | 
CCCCN1C(=O)C(=C2C(=O)Nc3ccc(Cl)cc32)c2cccnc21 [Compound 171] |  |  | 9 | 46 | 
CCCCN1C(=O)C(=C2C(=O)Nc3ccc(F)cc32)c2cccnc21 [Compound 173] |  |  | > 100 | > 100 | 
O=C1Nc2ccc(Br)cc2C1=C1C(=O)N(Cc2ccccc2)c2ncccc21 [Compound 176] |  |  |  |  | IC50 [2]: 13.7 µM; IC50 [3]: 20.6 µM; IC50 [4]: 13.2 µM; IC50 [5]: 4.1 µM; IC50 [6]: 7.4 µM; IC50 [7]: 8.3 µM
CC1=C(/C=C/C(C)=C/C=C/C(C)=C/C(=O)O)C(C)(C)CCC1 [all-trans retinoic acid, reference compound] |  |  |  |  | IC50 [1, 8]: > 50 µM; IC50 [1, 9]: > 50 µM
